Test results: paper PMC4431184, “The Use of the LanthaScreen TR-FRET CAR Coactivator Assay in the Characterization of Constitutive Androstane Receptor (CAR) Inverse Agonists” (Sensors (Basel, Switzerland), 2015)

How the values were obtained:
[1] = biological target: T1, human CAR ligand-binding domain (LBD) (Homo sapiens, UniProt Q14994); experiment: LanthaScreen TR-FRET CAR Coactivator Assay; format: biochemical; settings: for IC50: IC50 (95% Conf. Interv.), TR-FRET CAR Assay; for fold activation compared to vehicle control: CITCO 10 μM
T1 sequence (Q14994 109-352 limits assumed): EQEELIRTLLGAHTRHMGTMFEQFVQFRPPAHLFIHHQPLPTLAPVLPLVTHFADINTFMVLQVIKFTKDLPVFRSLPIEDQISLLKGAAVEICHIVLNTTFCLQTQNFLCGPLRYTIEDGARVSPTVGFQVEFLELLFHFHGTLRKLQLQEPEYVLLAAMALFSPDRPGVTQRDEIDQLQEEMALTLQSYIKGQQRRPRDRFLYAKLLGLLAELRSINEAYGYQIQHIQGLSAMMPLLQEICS
Source text: The LanthaScreen^TMTR-FRET CAR Coactivator Binding Assay (Cat. No. PV4836, now produced by Thermo) was used with slight modifications of the manufacturer’s protocol. The assay uses two fluorophores: a terbium-labeled anti-GST antibody interacting with glutathione-S-transferase (GST) tagged human CAR ligand-binding domain (LBD) and a fluorescein-labeled PGC1α coactivator peptide (Figure 1). […] Thus, this energy transfer is detected by an increase in the fluorescence emission of the acceptor (fluorescein) and a decrease in the fluorescence emission of the donor (terbium). To quantify the process, TR-FRET is expressed as a ratio of the intensities of the acceptor and donor fluorophores. […] Incubation time was optimized from 1 to 4 h at room temperature and protected from light. […] According to the recommended protocol of the manufacturer, CAR-LBD is added to the solution of test compounds, followed by the addition of a mixture of the fluorescein-coactivator peptide and terbium-labeled anti-GST antibody. In the study we also tested to determine if the order of adding the constituents in the mixture may have an influence on the sensitivity and reproducibility of the assay. […] The terbium was excited using a 340-nm excitation filter with a 30-nm bandwidth and fluorescein was excited with the first emission peak of terbium centered at 495 nm. Energy transfer to fluorescein emission (520 nm) is then measured in the silent region between the first two terbium emission peaks centered at 490 and 545 nm (see Graphical Abstract). […] Delay time was set at 100 μs and integration time 200 μs. Gains set to 100 were the use constant in all the experiments. The 520 nm/495 nm TR-FRET ratio was then calculated. […] The values above the baseline represent activation of CAR LBD-PGC1α interaction and agonistic activity of the tested ligand. The experiments were performed at least three times in quadruplicates. Data are presented as the means and S.D. from three independent experiments (n = 3). […] Dose-response curves were generated by plotting the emission TR-FRET ratio vs. the log of a ligand (in μM). To determine the half maximal inhibitory concentration (IC50) value, the data were fitted using an equation for a sigmoidal dose response inhibition (with a varying slope) using the software GraphPad™ PRISM version 6.05. Z-factors were calculated using the method of Zhang et al..

human CAR LBD = biological target: T2, human CAR LBD (Homo sapiens, UniProt Q14994); experiment: CAR LBD assembly assay (GAL4/VP16 luciferase reporter in HepG2 cells); format: cell-based; settings: CITCO 1 µM, up to highest studied concentration 30 µM
T2 construct: encoding C (151–349 aa, helices 3–12, pCAR-C/VP16); N (103–150 aa, helix 1, pCAR-N/GAL4) terminal parts of human CAR LBD; expressed in transfected cells; host or cells: HepG2
T2 sequence (Q14994 103-150 isoform Q14994-2): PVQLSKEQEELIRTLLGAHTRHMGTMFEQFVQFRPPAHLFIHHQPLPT
T2 sequence (Q14994 151-348 isoform Q14994-2): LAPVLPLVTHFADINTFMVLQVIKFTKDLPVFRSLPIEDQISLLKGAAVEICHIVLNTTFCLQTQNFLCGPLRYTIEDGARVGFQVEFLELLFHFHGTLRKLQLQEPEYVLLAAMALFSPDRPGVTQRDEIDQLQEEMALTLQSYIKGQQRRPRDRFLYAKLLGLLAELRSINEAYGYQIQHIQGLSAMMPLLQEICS
Experimental: The CAR LBD assembly assay was performed according to the protocol we described in our latest report. The CAR LBD assembly assay is based on two hybrid expression constructs encoding C (151–349 aa, helices 3–12, pCAR-C/VP16) and N (103–150 aa, helix 1, pCAR-N/GAL4) terminal parts of human CAR LBD that are co-transfected together with the pGL5-luc luciferase gene reporter plasmid (Promega) containing GAL4 binding sites. When the CAR LBD interacts with a ligand (both agonist and antagonist), connection of the helix 1 to CAR LBD helices 3–12 promotes firefly luciferase activation. Thus, the assay monitor interaction of CAR LBD with ligands rather than its activation or deactivation.

C[C@]12CC[C@@H](O)C[C@@H]1CC[C@@H]1[C@@H]2CC[C@]2(C)C=CC[C@@H]12 [Androstenol, 5α-androst-16-en-3α-ol]
IC50 ([1]; CITCO 1 μM, antagonist mode, with agonist CITCO 1 μM): 313 µM
IC50 ([1]; No CITCO, inverse agonist mode, reduction of CAR constitutive activity): 0.35 µM
concentration at which consistent antagonistic effect on CITCO was observed ([1]; with CITCO 1 μM): 30 µM
inhibition of CITCO-mediated CAR LBD interaction with PGC1α ([1]; with CITCO 1 μM, serial dilution): did not show any significant inhibition
inhibition of the activity of CITCO (human CAR LBD): weakest inhibition
inhibition of the activity of CITCO (human CAR LBD; listed as androstenol): weaker inhibition

Clc1ccc(-c2nc3sccn3c2C=NOCc2ccc(Cl)c(Cl)c2)cc1 [CITCO, 6-(4-Chlorophenyl)imidazo[2,1-b][1,3]thiazole-5-carbaldehyde O-(3,4-dichlorobenzyl)oxime]
fold activation compared to vehicle control ([1]; modified order: CAR-LBD and fluorescein-/terbium-labeled reagents before the agonist (Figure 2B)): 1.94 fold
fold activation compared to vehicle control ([1]; modified order: ligand, fluorescein-PGC1α and Tb antibody, then CAR-LBD (Figure 2A)): 2.26 fold
fold activation compared to vehicle control ([1]; standard procedure (Figure 2C)): 2.56 fold

Clc1ccccc1C(c1ccccc1)(c1ccccc1)n1ccnc1 [Clotrimazole, 1-[(2-Chlorophenyl)diphenylmethyl]-1H-imidazole]
effect on interaction of CAR LBD with the PGC1α coactivator ([1]; 10 μM, no CITCO): almost completely inhibited
effect on constitutive activity of CAR ([1]; 30 μM): abolish the constitutive activity of CAR
effect on CITCO-mediated CAR LBD interaction with PGC1α ([1]; 30 μM, with CITCO): completely abrogated the effect of CITCO
effect on constitutive activity of CAR ([1]; concentrations of 20 and 30 μM): abolished constitutive activity of CAR
concentration with significant inhibition of CAR LBD constitutive activity ([1]; no CITCO): 0.01 µM
